This is an account of results in paper PMC2248166, “Quantitative peptide binding motifs for 19 human and mouse MHC class I molecules derived using positional scanning combinatorial peptide libraries” (Immunome Research, 2008).

Where a SMILES comes first, the peptide text is derived from it.

Assay in all cases: biochemical
Assay type in all cases: binding

For assay [1], the target named is HLA B*1501 (Homo sapiens, UniProt P01889, A329T/A93T/A95T/C349S/D201E/D98Y/E187L/E204Q/E69M/E70A/K202T/N87E/Q94N/R155S/R180W/S121R/S35A/S48A/V306I/V36M/Y140S/Y91S).
Assay [2] has as its target HLA B*1503 (Homo sapiens, UniProt P01889, A329T/A93T/A95T/C349S/D201E/D98Y/E187L/E204Q/K202T/N87E/Q94N/R155S/R180L/S121R/S35A/V306I/V36M/Y140S/Y91S).
Assay [3] addresses HLA A*3201 (Homo sapiens, UniProt P04439, A270S/D101S/D185E/E176V/E277Q/F133L/G103R/G107R/G231S/H175R/I121M/I218V/I322F/K168Q/L105A/L300P/L318F/M331R/P208A/P217A/Q94H/R106L/R138Q/S129P/T104I/T323A/T345S/V100E/V321M/V358M).
For assay [4], the target named is HLA A*3001 (Homo sapiens, UniProt P04439, D140H/D185E/E176W/F33S/G80R/H175R/K168Q/R138E/R41S).
Sequence of HLA A*3001 (P04439 25-365 limits assumed, stated change not applied): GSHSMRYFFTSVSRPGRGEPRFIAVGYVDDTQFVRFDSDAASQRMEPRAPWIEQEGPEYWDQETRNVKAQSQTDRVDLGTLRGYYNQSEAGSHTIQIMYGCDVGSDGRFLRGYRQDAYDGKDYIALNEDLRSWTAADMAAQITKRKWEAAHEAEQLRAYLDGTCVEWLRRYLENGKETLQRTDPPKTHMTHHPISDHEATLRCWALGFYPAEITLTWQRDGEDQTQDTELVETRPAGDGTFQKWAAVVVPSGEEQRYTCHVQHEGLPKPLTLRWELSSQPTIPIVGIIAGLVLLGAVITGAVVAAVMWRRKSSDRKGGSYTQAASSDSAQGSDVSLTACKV
Assay [5] deals with HLA B*0801 (Homo sapiens, UniProt P01889, A93T/A95T/D138N/E176V/E187T/K202T/Q94N/R180D/S35A/V36M/Y33D/Y91F).

The term IC50 denotes the concentration at which inhibition is half-maximal. Low values mean higher potency, high ones lower potency.

Consider `CC[C@H](C)[C@H](N)C(=O)N[C@H](C(=O)N[C@@H](CC(C)C)C(=O)N[C@H](C(=O)N[C@@H](CC(N)=O)C(=O)N[C@H](C(=O)N[C@H](C(=O)N[C@@H](CC(N)=O)C(=O)N[C@H](C(=O)O)[C@@H](C)CC)C(C)C)C(C)C)[C@@H](C)O)[C@@H](C)O` [3102.0320] (H-ITLTNVVNI-OH), for which the half-inhibitory concentration (IC50) in assay [1] was 12 nM; in assay [2], 22 nM; in assay [3], 77 nM; in assay [4] it was 35 nM.
With `CC[C@H](C)[C@H](NC(=O)[C@H](CCCCN)NC(=O)[C@H](CC(N)=O)NC(=O)[C@H](CO)NC(=O)[C@H](Cc1ccc(O)cc1)NC(=O)[C@H](CCCCN)NC(=O)[C@H](CC(C)C)NC(=O)[C@@H](NC(=O)[C@@H](N)CCCCN)[C@@H](C)O)C(=O)O` [3102.0326] (H-KTLKYSNKI-OH), the IC50 in assay [1] was 124 nM; in assay [3], 1.9 nM; in assay [4] it was 38 nM.
As for `CC[C@H](C)[C@H](NC(=O)[C@@H](N)CCCCN)C(=O)NCC(=O)N[C@@H](CCSC)C(=O)N[C@@H](Cc1ccccc1)C(=O)N[C@@H](CC(N)=O)C(=O)N[C@@H](CC(C)C)C(=O)N[C@H](C(=O)N[C@@H](Cc1ccccc1)C(=O)O)[C@@H](C)O` [3102.0341] (H-KIGMFNLTF-OH), the IC50 in assay [1] was 0.21 nM; in assay [2], 13 nM; in assay [3], 0.27 nM.
For the compound `CC[C@H](C)[C@H](NC(=O)[C@H](CC(N)=O)NC(=O)[C@H](Cc1ccccc1)NC(=O)[C@H](CCSC)NC(=O)[C@@H](N)CC(N)=O)C(=O)N[C@@H](CO)C(=O)N[C@@H](Cc1ccccc1)C(=O)N[C@@H](CCCNC(=N)N)C(=O)N[C@@H](Cc1ccccc1)C(=O)O` [3102.0348] (H-NMFNISFRF-OH), the IC50 in assay [1] was found to be 43 nM; in assay [2], 19 nM; in assay [3], 3.6 nM; in assay [4], 27 nM.
On to `CC[C@H](C)[C@H](NC(=O)[C@@H]1CCCN1C(=O)[C@@H](NC(=O)[C@H](CO)NC(=O)[C@H](CC(N)=O)NC(=O)[C@H](Cc1ccc(O)cc1)NC(=O)[C@H](CO)NC(=O)[C@H](CCC(N)=O)NC(=O)[C@@H](N)CCSC)C(C)C)C(=O)O` [3102.0353] (H-MQSYNSVPI-OH), for which the IC50 came out at 1.6 nM in assay [1], 0.73 nM in assay [2] and 2.5 nM in assay [3].
`CC[C@H](C)[C@H](N)C(=O)N[C@@H](C)C(=O)N[C@@H](CO)C(=O)N[C@H](C(=O)N[C@@H](CC(C)C)C(=O)N[C@H](C(=O)N[C@H](C(=O)N[C@H](C(=O)N[C@H](C(=O)O)[C@@H](C)CC)[C@@H](C)O)C(C)C)[C@@H](C)CC)[C@@H](C)O` [3102.0358] (H-IASTLIVTI-OH): the results for the IC50 in assay [1], in assay [3] and in assay [4] were 156 nM, 74 nM and 10 nM, respectively.
With `CC[C@H](C)[C@H](NC(=O)[C@@H](NC(=O)[C@@H](N)CCCCN)[C@@H](C)O)C(=O)N[C@@H](CC(N)=O)C(=O)N[C@@H](C)C(=O)N[C@@H](CC(C)C)C(=O)N[C@H](C(=O)N[C@@H](Cc1ccc(O)cc1)C(=O)N[C@@H](Cc1ccccc1)C(=O)O)C(C)C` [3102.0359] (H-KTINALVYF-OH), the IC50 in assay [1] amounted to 0.37 nM; in assay [2], 23 nM; in assay [3], 8.7 nM.
As for `CC[C@H](C)[C@H](NC(=O)[C@@H](NC(=O)[C@@H](NC(=O)[C@@H]1CCCN1C(=O)[C@H](CCCNC(=N)N)NC(=O)[C@H](Cc1ccccc1)NC(=O)[C@H](Cc1ccccc1)NC(=O)[C@@H](NC(=O)[C@@H](N)CCCCN)[C@@H](C)CC)[C@@H](C)O)[C@@H](C)O)C(=O)O` [3102.0470] (H-KIFFRPTTI-OH), the IC50 in assay [1] was found to be 93 nM; in assay [3], 1.1 nM; in assay [4], 17 nM.
`CC(C)C[C@H](NC(=O)[C@H](CO)NC(=O)[C@H](Cc1ccccc1)NC(=O)[C@@H]1CCCN1C(=O)[C@H](CCCNC(=N)N)NC(=O)[C@H](CCCNC(=N)N)NC(=O)[C@H](CC(C)C)NC(=O)[C@H](CC(C)C)NC(=O)[C@@H](N)CCCCN)C(=O)O` [3102.0529] (H-KLLRRPFSL-OH): 0.36 nM corresponded to half-maximal inhibition in assay [5] (IC50).
`CC(C)C[C@H](NC(=O)[C@H](CCCCN)NC(=O)[C@H](CCCNC(=N)N)NC(=O)[C@@H](N)CCCNC(=N)N)C(=O)N[C@@H](CC(C)C)C(=O)N[C@@H](CCCNC(=N)N)C(=O)N[C@@H](CCCNC(=N)N)C(=O)N1CCC[C@H]1C(=O)N[C@@H](Cc1ccccc1)C(=O)O` [3102.0530] (H-RRKLLRRPF-OH) yielded an IC50 in assay [5] of 11 nM.
In turn, `CC[C@H](C)[C@H](NC(=O)[C@@H](NC(=O)[C@H](CC(N)=O)NC(=O)[C@H](CCCCN)NC(=O)[C@H](CCCNC(=N)N)NC(=O)[C@@H](NC(=O)[C@H](Cc1ccccc1)NC(=O)[C@H](CC(C)C)NC(=O)[C@@H](N)Cc1ccc(O)cc1)[C@@H](C)CC)C(C)C)C(=O)O` [3102.0531] (H-YLFIRKNVI-OH) yielded an IC50 in assay [5] of 0.71 nM.
On the same count and under the same terms, the result for `CC[C@H](C)[C@H](NC(=O)CNC(=O)[C@@H]1CCCN1C(=O)[C@@H](N)CO)C(=O)N[C@@H](CCCNC(=N)N)C(=O)N1CCC[C@H]1C(=O)N[C@@H](CCCNC(=N)N)C(=O)N[C@@H](Cc1ccccc1)C(=O)N[C@@H](CC(C)C)C(=O)O` [3102.0532] (H-SPGIRPRFL-OH) reads 56 nM.
In the case of `CC[C@H](C)[C@H](NC(=O)[C@@H](N)CCC(N)=O)C(=O)N[C@H](C(=O)N[C@@H](C)C(=O)N[C@@H](Cc1ccc(O)cc1)C(=O)N[C@@H](Cc1ccccc1)C(=O)N[C@@H](CO)C(=O)N[C@@H](CCC(=O)O)C(=O)N[C@@H](Cc1ccccc1)C(=O)O)C(C)C` [3102.0816] (H-QIVAYFSEF-OH), the results for the IC50 in assay [1], in assay [2] and in assay [3] were 1.4 nM, 7.9 nM and 70 nM, respectively.
Turning to `CC(C)C[C@H](NC(=O)[C@@H](N)C(C)C)C(=O)N[C@@H](Cc1ccccc1)C(=O)N[C@@H](CCC(=O)O)C(=O)N[C@H](C(=O)N[C@@H](Cc1ccccc1)C(=O)N[C@H](C(=O)N[C@H](C(=O)N[C@@H](Cc1ccccc1)C(=O)O)C(C)C)C(C)C)C(C)C` [3102.0818] (H-VLFEVFVVF-OH), the values for the IC50 in assay [1], in assay [2] and in assay [3] were 2.9 nM, 4.9 nM and 7.8 nM, respectively.
Turning to `CC(C)C[C@H](NC(=O)[C@H](C)N)C(=O)N[C@@H](CC(C)C)C(=O)N[C@@H](CCC(=O)O)C(=O)N[C@@H](CC(C)C)C(=O)N[C@@H](Cc1ccccc1)C(=O)N[C@@H](CC(N)=O)C(=O)N[C@@H](C)C(=O)N[C@@H](Cc1ccccc1)C(=O)O` [3102.0961] (H-ALLELFNAF-OH), the results for the IC50 in assay [1], in assay [2] and in assay [3] were 2.5 nM, 0.24 nM and 166 nM, respectively.
In the same order, the values of `CC[C@H](C)[C@H](NC(=O)[C@H](CC(C)C)NC(=O)[C@H](Cc1ccccc1)NC(=O)[C@@H](NC(=O)[C@H](CO)NC(=O)[C@H](Cc1ccc(O)cc1)NC(=O)[C@H](CC(C)C)NC(=O)[C@@H](N)CCCNC(=N)N)[C@@H](C)CC)C(=O)N[C@@H](Cc1ccccc1)C(=O)O` [3102.1049] (H-RLYSIFLIF-OH) are 3.4 nM, 0.16 nM and 6.9 nM.
Regarding `CC(C)C[C@H](N)C(=O)N[C@@H](CO)C(=O)N[C@@H](Cc1ccc(O)cc1)C(=O)N[C@@H](Cc1ccc(O)cc1)C(=O)N[C@H](C(=O)N[C@H](C(=O)N[C@@H](Cc1ccc(O)cc1)C(=O)N[C@H](C(=O)N[C@@H](Cc1ccccc1)C(=O)O)C(C)C)C(C)C)C(C)C` [3102.1098] (H-LSYYVVYVF-OH), the figures for the IC50 in assay [1], in assay [2] and in assay [3] were 6.4 nM, 19 nM and 280 nM, respectively.
For `CC[C@H](C)[C@H](NC(=O)[C@H](CO)NC(=O)[C@@H](N)CC(C)C)C(=O)N[C@@H](Cc1ccccc1)C(=O)N[C@@H](Cc1ccccc1)C(=O)N[C@@H](Cc1ccc(O)cc1)C(=O)N[C@@H](CO)C(=O)N[C@@H](CO)C(=O)N[C@@H](Cc1ccccc1)C(=O)O` [3102.1177] (H-LSIFFYSSF-OH), the concentration for half-maximal inhibition (IC50) in assay [1] was found to be 17 nM; in assay [2], 0.22 nM; in assay [3], 129 nM.
Consider `CC[C@H](C)[C@H](NC(=O)[C@@H](N)CCCCN)C(=O)N[C@@H](Cc1ccc(O)cc1)C(=O)N[C@@H](CC(N)=O)C(=O)N[C@H](C(=O)N[C@H](C(=O)N[C@@H](CC(N)=O)C(=O)N1CCC[C@H]1C(=O)N[C@@H](Cc1ccccc1)C(=O)O)[C@@H](C)O)C(C)C` [3102.1223] (H-KIYNVTNPF-OH), for which the IC50 in assay [1] stood at 2.7 nM; in assay [2] it was 7.5 nM; in assay [3], 4.3 nM.
Turning to `CC(C)C[C@H](NC(=O)[C@@H](NC(=O)[C@@H](NC(=O)[C@H](CO)NC(=O)[C@H](CC(N)=O)NC(=O)[C@H](CCC(N)=O)NC(=O)[C@@H](N)CC(C)C)C(C)C)C(C)C)C(=O)N[C@@H](CCC(N)=O)C(=O)N[C@@H](Cc1ccccc1)C(=O)O` [3102.1263] (H-LQNSVVLQF-OH), the IC50 in assay [1] amounted to 1.5 nM; in assay [2], 6.2 nM; in assay [3], 7.3 nM.
For `CSCC[C@H](NC(=O)[C@@H](N)Cc1c[nH]cn1)C(=O)N[C@@H](C)C(=O)N[C@@H](Cc1ccc(O)cc1)C(=O)N[C@@H](CO)C(=O)N[C@@H](Cc1ccccc1)C(=O)N[C@@H](CCC(N)=O)C(=O)N[C@H](C(=O)N[C@@H](Cc1ccccc1)C(=O)O)[C@@H](C)O` [3102.1331] (H-HMAYSFQTF-OH), the IC50 was found to be 0.25 nM in assay [1], 0.28 nM in assay [2] and 16 nM in assay [3].
